Each structure is given as a SMILES string.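 Exposure lasted 48 hours, with cells grown in 96-well plates and compounds tested at five concentrations. Here, GI50 denotes the concentration required for 50% inhibition of growth.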 Active and inactive are the calls of the source. No stated cut-off is given here; in the data, active = GI50 up to about 1.1 µM and inactive = higher. A value given as a limit tells only on which side of the number the result lay.

The values below come from ChEMBL document CHEMBL1201862, “PubChem BioAssay data set” (2004).

Among the test systems are ACHN; CCRF-CEM; COLO 205; HL-60; NCI-H226; OVCAR-5; RPMI-8226; SK-MEL-2; SK-OV-3; SN12C; SR; SW-620; UO-31; EKVX; SNB-19.
What all share (assay): NCI anticancer screen, dose series, 48 h

As to `COc1ccc(C2S/C(=C\c3ccc(O)cc3)C(=O)N2NC(=O)Cc2ccccc2)cc1` (centres undefined), the GI50 in the test on ACHN, in the test with CCRF-CEM, in the test with COLO 205, in the test with HL-60, in the test on NCI-H226 and in the test on OVCAR-5 was > 100 µM (inactive) each time. The GI50 with RPMI-8226, in the test with SK-MEL-2, in the test with SK-OV-3, in the test with SN12C, in the test on SR and in the test with SW-620 was > 100 µM (inactive) throughout. Also, the GI50 in the test on UO-31 was > 100 µM (inactive).
With `COC[C@@H]1Cc2cc(OC)c3c(c2[C@H](c2ccc(OC)c(OC)c2)[C@H]1COC)OCO3` [HYPOPHYLLANTHIN], the GI50 with ACHN is 93.8 µM (inactive); in the test on CCRF-CEM, > 100 µM (inactive); in the test on COLO 205, > 100 µM (inactive); in the test on EKVX, > 100 µM (inactive); in the test on HL-60, > 100 µM (inactive); in the test with OVCAR-5, > 100 µM (inactive). Besides, the GI50 in the test on SK-MEL-2, in the test on SK-OV-3, in the test with SN12C, in the test on SNB-19, in the test on SR and with SW-620 was > 100 µM (inactive) each time. Besides, the GI50 in the test on UO-31 is 70.1 µM (inactive).
For the compound `CCOC(=O)C1=C(C)N(NC(=O)OC)C2(N)N(NC(=O)OC)C(C)=C(C(=O)OCC)C12C#N` (centres undefined), the GI50 with ACHN, with EKVX, with HL-60, in the test with NCI-H226, with OVCAR-5 and with RPMI-8226 was > 100 µM (inactive) throughout. Also, the GI50 with SK-MEL-2, in the test on SK-OV-3, in the test with SN12C, with SNB-19, in the test with SR and in the test with SW-620 was > 100 µM (inactive) in each case. The GI50 in the test with UO-31 was > 100 µM (inactive).
`C=CCC12CC(=O)CCC1CC(=O)C2` (centres undefined): the GI50 in the test with ACHN, in the test with CCRF-CEM, in the test on COLO 205, with HL-60, in the test with NCI-H226 and in the test with RPMI-8226 was > 100 µM (inactive) each time. For the same compound, the GI50 in the test with SK-MEL-2, with SK-OV-3, with SN12C, in the test on SNB-19, in the test with SR and in the test on SW-620 was > 100 µM (inactive) each time. Besides, in the test on UO-31, the GI50 is > 100 µM (inactive).
`O=C(c1ccccc1)c1ccc2cccc(OC3OC(CO)C(O)C(O)C3O)c2n1` (centres undefined): the GI50 in the test on ACHN, with COLO 205, in the test on EKVX, in the test on NCI-H226, in the test on OVCAR-5 and in the test on RPMI-8226 was > 100 µM (inactive) each time. The GI50 with SK-MEL-2, in the test with SN12C, in the test with SNB-19, in the test on SR, with SW-620 and in the test with UO-31 was > 100 µM (inactive) in each case.
For `OCC1O[C@H](O[C@@H]2CCCN3CC(O)C(O)[C@@H]23)C(O)C(O)C1O` (some centres undefined), the GI50 in the test with ACHN, in the test on CCRF-CEM, with COLO 205, with EKVX, in the test on HL-60 and in the test with NCI-H226 was > 100 µM (inactive) in each case. Besides, the GI50 in the test with OVCAR-5, in the test with SK-MEL-2, in the test on SK-OV-3, in the test on SN12C, in the test on SR and with SW-620 was > 100 µM (inactive) in each case. Besides, the GI50 with UO-31 is > 100 µM (inactive).
On to `COc1cc(C2c3cc4c(cc3[C@@H](Nc3ccc(C(=O)O)cc3)C3COC(=O)[C@H]23)OCO4)cc(OC)c1O` (some centres undefined), for which the GI50 is 31.6 µM (inactive) in the test on ACHN; 2.78 µM (inactive) in the test with CCRF-CEM; 27.4 µM (inactive) in the test on EKVX; 2.49 µM (inactive) with HL-60; 3.72 µM (inactive) in the test with NCI-H226; 30.4 µM (inactive) with SK-MEL-2. In addition, the figures for the GI50 in the test on SN12C, with SNB-19 and with UO-31 were 31.7 µM (inactive), 6.14 µM (inactive) and 22.5 µM (inactive), respectively.
In the case of `O=C(O)CNS(=O)(=O)c1ccc(NC(=O)c2ccc([N+](=O)[O-])cc2)cc1`, the GI50 in the test with ACHN, in the test with CCRF-CEM, with COLO 205, in the test on EKVX, with HL-60 and in the test on NCI-H226 was > 100 µM (inactive) each time. Moreover, the GI50 with OVCAR-5, in the test with RPMI-8226, in the test on SK-MEL-2, in the test on SK-OV-3, with SN12C and in the test with SNB-19 was > 100 µM (inactive) in each case. Besides, the GI50 in the test on SW-620 and in the test with UO-31 was > 100 µM (inactive) each time.
`CCNC1=Nc2ccccc2-n2c(nn3nc4ccccc4c23)N1CC`: the GI50 was > 100 µM (inactive) in the test with ACHN; 80 µM (inactive) in the test on CCRF-CEM; > 100 µM (inactive) in the test with COLO 205; > 100 µM (inactive) in the test on EKVX; 36.6 µM (inactive) with HL-60; > 100 µM (inactive) in the test on NCI-H226. Besides, the GI50 with OVCAR-5 was > 100 µM (inactive); in the test on RPMI-8226 it was 97.1 µM (inactive); in the test with SN12C it was 77.4 µM (inactive); with SNB-19, > 100 µM (inactive); in the test with SR, 34.8 µM (inactive); with SW-620 it was > 100 µM (inactive).
Consider `CON(C)C(=O)CCCO`, for which the GI50 in the test on ACHN, in the test on CCRF-CEM, in the test on COLO 205, in the test on EKVX, in the test with HL-60 and in the test on NCI-H226 was > 100 µM (inactive) in each case. Moreover, the GI50 with RPMI-8226 was > 100 µM (inactive); in the test with SK-MEL-2 it was > 100 µM (inactive); in the test on SK-OV-3 it was > 10 µM (inactive); in the test with SN12C, > 100 µM (inactive); in the test with SNB-19, > 100 µM (inactive); in the test on SR it was > 100 µM (inactive). Besides, the GI50 in the test on SW-620 and in the test with UO-31 was > 100 µM (inactive) throughout.
Take `CCN1C(C)=NC2C(=O)c3ccccc3C(=O)C21` (centres undefined): the GI50 in the test with ACHN was 74.8 µM (inactive); in the test on CCRF-CEM, 47 µM (inactive); with COLO 205, 33.5 µM (inactive); in the test on EKVX, > 10 µM (inactive); in the test with HL-60, 37.8 µM (inactive); with NCI-H226, 63 µM (inactive). In addition, the GI50 is 55.7 µM (inactive) in the test on RPMI-8226; > 100 µM (inactive) in the test with SK-MEL-2; 40.8 µM (inactive) with SN12C; 81.7 µM (inactive) in the test with SNB-19; 52.5 µM (inactive) in the test on SR; 32.6 µM (inactive) with SW-620. The GI50 in the test with UO-31 was > 100 µM (inactive).
`CC(C)N(C(=O)C12C3C4C1C1C4(C#N)C3C12C#N)C(C)C` (centres undefined): the GI50 with ACHN, in the test with CCRF-CEM, in the test with COLO 205, in the test with EKVX, with NCI-H226 and in the test on OVCAR-5 was > 100 µM (inactive) each time. Further, the GI50 in the test with RPMI-8226, in the test with SK-OV-3, in the test with SN12C, in the test on SNB-19, in the test on SW-620 and in the test on UO-31 was > 100 µM (inactive) each time.
`C[C@@H]1CC2(C[C@@H](C)C3[C@@H](CC4(C)CCCC5C6=CC(O)(CC[C@]34C)OC6=CC(=O)OC5(C)C)O2)OC1=O` (some centres undefined): the GI50 in the test with ACHN, in the test with COLO 205, in the test with HL-60, in the test with NCI-H226, in the test with OVCAR-5 and in the test on RPMI-8226 was > 100 µM (inactive) throughout. In addition, the GI50 in the test on SK-MEL-2, with SK-OV-3, in the test on SN12C, in the test on SNB-19, in the test on SR and in the test on SW-620 was > 100 µM (inactive) in each case. The GI50 in the test on UO-31 was > 100 µM (inactive).
As for `CC(=O)N/C(=C\c1ccccc1/C=C(\NC(C)=O)c1nc2cc(C)c(C)cc2[nH]1)c1nc2cc(C)c(C)cc2[nH]1`, the GI50 is 14.8 µM (inactive) in the test on ACHN; 26.7 µM (inactive) in the test with CCRF-CEM; 19.5 µM (inactive) with COLO 205; 12.3 µM (inactive) with EKVX; 25.8 µM (inactive) in the test with NCI-H226; 36.8 µM (inactive) with OVCAR-5. Further, the GI50 was 2.04 µM (inactive) with RPMI-8226; 22.1 µM (inactive) in the test on SK-MEL-2; 34.4 µM (inactive) in the test with SK-OV-3; 17.1 µM (inactive) in the test on SN12C; 6.81 µM (inactive) in the test on SNB-19; 0.689 µM (active) with SR. The values for the GI50 in the test with SW-620 and in the test on UO-31 were 31.1 µM (inactive) and 3.22 µM (inactive), respectively.
As to `COc1ccc(OC)c2c1CC(C(=O)O)(C(=O)O)CC2=O`, the GI50 with ACHN, in the test on EKVX, in the test on HL-60, in the test on NCI-H226, in the test on OVCAR-5 and in the test with SK-MEL-2 was > 100 µM (inactive) throughout. Moreover, the GI50 with SK-OV-3, with SN12C, in the test on SNB-19, with SW-620 and in the test with UO-31 was > 100 µM (inactive) in each case.
